Test results from patent US12209081B2 (Katholieke Universiteit Leuven, priority 2020, dated 2025).
Structures can show the parent of a compound that is named as a salt.

Tests used:
TRPM3 [1] = details: rat pain model; Chen L et al. 2014; cited from earlier work
TRPM3 [2] = details: wild type mice vs knock-out TRPM3 mice; cited from earlier work
TRPM3 [3] = target: TRPM3 (Homo sapiens (Human), UniProt Q9HCF6); details: Wagner et al., 2008; cited from earlier work
[4] = target: mouse TRPM3α2 (mTRPM3) ion channel (Mus musculus (Mouse), UniProt J9SQF3); assay: TRPM3 ion channel driven Ca2+ uptake, Fluo-4 AM assay, mTRPM3alpha2 overexpressing flip-in HEK293 cells stimulated with pregnenolone sulfate; format: cell-based
Procedure, shortened: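 Read-out is Ca2+ influx via Fluo-4 AM fluorescence at 485/535 nm, taken right after seeding ~2000 cells/well onto compound with 50 μM PS. Inhibition computed from RFU between vehicle-stimulated and positive-control-inhibitor wells; cells were mTRPM3α2-overexpressing flip-in HEK293.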

[5] = PS (50 μM) stimulated, cpd 001-199
[6] = PS (50 μM) stimulated, cpds. 500-599

mouse TRPM3α2 (mTRPM3) ion channel, sequence (J9SQF3 other isoform, or with tags, fused parts or gaps): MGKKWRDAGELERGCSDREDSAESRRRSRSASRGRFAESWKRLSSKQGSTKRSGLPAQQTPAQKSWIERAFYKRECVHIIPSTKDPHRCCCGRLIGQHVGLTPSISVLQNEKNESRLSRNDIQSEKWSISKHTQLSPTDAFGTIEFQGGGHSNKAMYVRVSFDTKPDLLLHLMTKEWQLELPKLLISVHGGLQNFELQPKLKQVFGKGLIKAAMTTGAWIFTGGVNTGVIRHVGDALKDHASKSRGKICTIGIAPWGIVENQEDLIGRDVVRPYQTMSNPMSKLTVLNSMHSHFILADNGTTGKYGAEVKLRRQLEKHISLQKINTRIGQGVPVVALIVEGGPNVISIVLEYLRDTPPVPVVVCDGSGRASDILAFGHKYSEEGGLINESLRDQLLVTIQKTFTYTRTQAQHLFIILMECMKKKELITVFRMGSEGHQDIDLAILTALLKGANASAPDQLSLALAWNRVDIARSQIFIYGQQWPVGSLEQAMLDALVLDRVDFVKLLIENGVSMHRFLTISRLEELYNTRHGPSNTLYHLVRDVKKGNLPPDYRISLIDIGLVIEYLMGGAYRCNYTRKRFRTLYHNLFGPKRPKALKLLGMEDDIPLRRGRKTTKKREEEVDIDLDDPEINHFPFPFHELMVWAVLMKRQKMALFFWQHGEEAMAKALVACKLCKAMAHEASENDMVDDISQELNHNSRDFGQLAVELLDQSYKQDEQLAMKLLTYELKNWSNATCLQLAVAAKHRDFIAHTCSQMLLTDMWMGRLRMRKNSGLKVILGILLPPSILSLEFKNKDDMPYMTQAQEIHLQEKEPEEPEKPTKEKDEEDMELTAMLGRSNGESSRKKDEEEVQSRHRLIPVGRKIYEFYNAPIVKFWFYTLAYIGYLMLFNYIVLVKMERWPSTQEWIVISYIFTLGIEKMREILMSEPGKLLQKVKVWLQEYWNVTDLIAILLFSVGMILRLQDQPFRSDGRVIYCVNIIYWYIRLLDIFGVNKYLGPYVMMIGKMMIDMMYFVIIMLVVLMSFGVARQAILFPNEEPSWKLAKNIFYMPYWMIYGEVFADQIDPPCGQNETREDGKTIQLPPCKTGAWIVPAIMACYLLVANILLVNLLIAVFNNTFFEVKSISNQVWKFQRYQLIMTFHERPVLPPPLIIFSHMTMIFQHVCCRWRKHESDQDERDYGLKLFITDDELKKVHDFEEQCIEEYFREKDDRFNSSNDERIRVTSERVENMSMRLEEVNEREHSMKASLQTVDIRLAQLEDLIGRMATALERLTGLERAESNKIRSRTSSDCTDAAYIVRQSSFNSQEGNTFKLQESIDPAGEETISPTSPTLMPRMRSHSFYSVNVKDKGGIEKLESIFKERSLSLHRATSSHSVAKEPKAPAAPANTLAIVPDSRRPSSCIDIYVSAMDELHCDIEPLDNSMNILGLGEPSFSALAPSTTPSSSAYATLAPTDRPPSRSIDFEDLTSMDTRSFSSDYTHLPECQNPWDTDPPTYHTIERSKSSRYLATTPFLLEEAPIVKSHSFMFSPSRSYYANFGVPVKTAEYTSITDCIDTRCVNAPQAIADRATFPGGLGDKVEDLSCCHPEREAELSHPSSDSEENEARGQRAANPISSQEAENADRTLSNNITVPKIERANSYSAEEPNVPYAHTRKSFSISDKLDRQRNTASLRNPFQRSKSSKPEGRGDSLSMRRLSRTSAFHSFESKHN
TRPM3 (Homo sapiens (Human), UniProt Q9HCF6), sequence (Q9HCF6 whole entry, species assumed): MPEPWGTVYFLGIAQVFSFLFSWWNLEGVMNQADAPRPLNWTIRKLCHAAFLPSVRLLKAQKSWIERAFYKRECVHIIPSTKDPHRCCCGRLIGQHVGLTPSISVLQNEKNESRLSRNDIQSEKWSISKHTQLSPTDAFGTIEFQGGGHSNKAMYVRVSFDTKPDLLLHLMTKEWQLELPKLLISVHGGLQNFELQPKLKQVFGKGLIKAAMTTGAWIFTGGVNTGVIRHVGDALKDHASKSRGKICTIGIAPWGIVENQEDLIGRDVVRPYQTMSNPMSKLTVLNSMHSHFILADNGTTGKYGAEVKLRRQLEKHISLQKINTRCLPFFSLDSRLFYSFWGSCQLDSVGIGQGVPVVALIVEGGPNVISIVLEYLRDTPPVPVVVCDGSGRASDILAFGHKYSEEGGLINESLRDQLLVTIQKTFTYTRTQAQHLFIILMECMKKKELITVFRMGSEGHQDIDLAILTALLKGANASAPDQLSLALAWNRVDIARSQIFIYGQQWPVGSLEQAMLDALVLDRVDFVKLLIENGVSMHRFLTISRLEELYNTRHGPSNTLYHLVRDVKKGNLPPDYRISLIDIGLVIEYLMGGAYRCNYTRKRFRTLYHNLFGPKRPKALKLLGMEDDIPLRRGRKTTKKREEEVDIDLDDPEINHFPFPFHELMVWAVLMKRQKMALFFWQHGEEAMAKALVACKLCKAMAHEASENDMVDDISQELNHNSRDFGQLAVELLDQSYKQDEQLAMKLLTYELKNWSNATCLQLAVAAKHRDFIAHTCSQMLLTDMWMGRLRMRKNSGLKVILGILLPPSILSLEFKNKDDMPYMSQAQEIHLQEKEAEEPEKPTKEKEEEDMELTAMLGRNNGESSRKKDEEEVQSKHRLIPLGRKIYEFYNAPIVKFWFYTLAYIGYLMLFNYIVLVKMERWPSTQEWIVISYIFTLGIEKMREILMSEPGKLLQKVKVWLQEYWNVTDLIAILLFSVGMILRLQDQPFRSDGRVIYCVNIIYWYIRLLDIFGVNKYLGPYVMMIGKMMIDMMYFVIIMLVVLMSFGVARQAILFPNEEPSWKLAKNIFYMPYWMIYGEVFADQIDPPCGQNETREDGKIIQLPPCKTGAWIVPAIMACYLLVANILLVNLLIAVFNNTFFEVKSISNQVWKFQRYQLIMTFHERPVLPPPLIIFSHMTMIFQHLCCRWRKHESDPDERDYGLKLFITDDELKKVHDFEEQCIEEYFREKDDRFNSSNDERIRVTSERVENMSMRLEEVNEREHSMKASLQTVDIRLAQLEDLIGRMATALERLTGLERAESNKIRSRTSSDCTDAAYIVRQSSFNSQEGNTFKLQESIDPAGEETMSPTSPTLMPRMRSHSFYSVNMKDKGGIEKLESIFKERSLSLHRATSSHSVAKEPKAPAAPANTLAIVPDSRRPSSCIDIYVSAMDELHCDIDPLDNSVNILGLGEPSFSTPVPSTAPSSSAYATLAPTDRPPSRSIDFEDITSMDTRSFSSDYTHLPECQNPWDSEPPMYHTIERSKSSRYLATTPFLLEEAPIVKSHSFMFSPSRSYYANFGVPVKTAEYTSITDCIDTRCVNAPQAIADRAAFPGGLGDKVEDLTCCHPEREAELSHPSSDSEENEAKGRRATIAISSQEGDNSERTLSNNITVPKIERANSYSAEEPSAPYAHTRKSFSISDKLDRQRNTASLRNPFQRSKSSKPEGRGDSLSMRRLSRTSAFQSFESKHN

For O=C1C[C@@H](c2ccc(O)cc2)Oc2cc(O)ccc21 [Liquiritigenin], the “mechanical and cold hyperalgesia” value (TRPM3 [1]) is given as “decrease mechanical and cold hyperalgesia”.
In the case of CC(=O)C1CCC2C3CC=C4CC(OS(=O)(=O)O)CCC4(C)C3CCC12C (stereo not drawn) [pregnenolone sulfate, Pregnenolone sulfate], the evoked pain (TRPM3 [2]) is listed as “evoked pain in wild type mice but not in knock-out TRPM3 mice” and the “activator of TRPM3” value (TRPM3 [3]) is listed as “potent known activator of TRPM3”.
In the case of Cc1ncsc1COc1ccc2oc(C)c(C(=O)NC3CC4(COC4)C3)c2c1 [compound 156, 2-methyl-5-((4-methylthiazol-5-yl)methoxy)-N-(2-oxaspiro[3,3]heptan-6-yl)benzofuran-3-carboxamide], the IC50 [4, 5] is reported as < 1 µM.
For Cc1oc2ccc(OCc3cncs3)cc2c1C(=O)NC1(CO)CCOCC1 [compound 627, N-(4-(hydroxymethyl)tetrahydro-2H-pyran-4-yl)-2-methyl-5-(thiazol-5-ylmethoxy)benzofuran-3-carboxamide], the IC50 ([4]; PS (50 μM) stimulated, cpds. 608-666) was < 1 µM.
In the case of Cc1ncsc1COc1ccc2oc(C(F)F)c(C(=O)NC3CCNCC3(F)F)c2c1 (single isomer, unassigned) [cpd 310-En 1], the IC50 ([4]; PS 50 μM, cpds 300-399) is reported as < 1 µM.
For Cc1oc2ccc(OCc3nccs3)cc2c1C(=O)NC1(CO)CCOCC1 [compound 049, N-(4-(hydroxymethyl)tetrahydro-2H-pyran-4-yl)-2-methyl-5-(thiazol-2-ylmethoxy)benzofuran-3-carboxamide], the IC50 [4, 5] was < 1 µM.
Compound Cc1ncc(COc2ccc3oc(C)c(C(=O)NC(Cn4cncn4)C(N)=O)c3c2)s1 (single isomer, unassigned) [432-En 1, N-(1-amino-1-oxo-3-(1H-1,2,4-triazol-1-yl)propan-2-yl)-2-methyl-5-((2-methylthiazol-5-yl)methoxy)benzofuran-3-carboxamide] has an IC50 ([4]; PS (50 μM) stimulated, cpds. 400-499) of 1 to 20 µM.
For COC[C@H](NC(=O)c1c(C)oc2ccc(OCc3cnc(C)s3)cc12)C(N)=O [compound 303, (S)-N-(1-amino-3-methoxy-1-oxopropan-2-yl)-2-methyl-5-((2-methylthiazol-5-yl)methoxy)benzofuran-3-carboxamide], the IC50 ([4]; PS 50 μM, cpds 300-399) was < 1 µM.
In the case of Cc1oc2ccc(OCc3cccnc3C(F)(F)F)cc2c1C(=O)N[C@@H]1C(=O)NC[C@H]1O [compound 390, N-((3S,4R)-4-hydroxy-2-oxopyrrolidin-3-yl)-2-methyl-5-((2-(trifluoromethyl)pyridin-3-yl)methoxy)benzofuran-3-carboxamide], the IC50 ([4]; PS 50 μM, cpds 300-399) is reported as < 1 µM.
With COc1ccncc1COc1ccc2oc(C)c(C(=O)NC3CCOC3)c2c1 (stereo not drawn) [compound 040, 5-((4-methoxypyridin-3-yl)methoxy)-2-methyl-N-(tetrahydrofuran-3-yl)benzofuran-3-carboxamide] the IC50 [4, 5] was > 20 µM.
For Cc1oc2ccc(OCc3cncc(C(F)(F)F)c3)cc2c1C(=O)NC1CCNCC1(F)F (stereo not drawn) [compound 075, N-(3,3-difluoropiperidin-4-yl)-2-methyl-5-((5-(trifluoromethyl)pyridin-3-yl)methoxy)benzofuran-3-carboxamide], the IC50 [4, 5] was > 20 µM.
In the case of Cc1oc2ccc(OCc3cccnc3OC(F)F)cc2c1C(=O)N[C@@H](CO)C(N)=O [compound 296, (S)-N-(1-amino-3-hydroxy-1-oxopropan-2-yl)-5-((2-(difluoromethoxy)pyridin-3-yl)methoxy)-2-methylbenzofuran-3-carboxamide], the IC50 ([4]; PS 50 μM, cpds 200-299) is reported as < 1 µM.
In the case of Cc1ncc(COc2ccc3oc(C)c(C(=O)N[C@H](C(N)=O)[C@@H](C)O)c3c2)o1 [compound 375, N-((2S,3R)-1-amino-3-hydroxy-1-oxobutan-2-yl)-2-methyl-5-((2-methyloxazol-5-yl)methoxy)benzofuran-3-carboxamide], the IC50 ([4]; PS 50 μM, cpds 300-399) is reported as < 1 µM.
In the case of Cc1oc2ccc(OCc3ccc(F)cn3)cc2c1C(=O)NC1CCNCC1(F)F (single isomer, unassigned) [cpd 568-En 1], the IC50 [4, 6] is reported as < 1 µM.
With Cc1ncsc1COc1ccc2oc(C)c(C(=O)NC3(CO)CC(F)(F)C3)c2c1 [compound 537, N-(3,3-difluoro-1-(hydroxymethyl)cyclobutyl)-2-methyl-5-((4-methylthiazol-5-yl)methoxy)benzofuran-3-carboxamide] the IC50 [4, 6] was < 1 µM.
With Cc1oc2ccc(OCc3ccn(C)n3)cc2c1C(=O)N[C@@H](CO)C(N)=O [compound 686, (S)-N-(1-Amino-3-hydroxy-1-oxopropan-2-yl)-2-methyl-5-((1-methyl-1H-pyrazol-3-yl)methoxy)benzofuran-3-carboxamide] the IC50 ([4]; PS (50 μM) stimulated, cpds. 667-751) was < 1 µM.
For Cc1oc2ccc(OCc3cccnc3C(F)(F)F)cc2c1C(=O)NC1CC2(CNC2)C1 [compound 173, 2-methyl-N-(2-azaspiro[3,3]heptan-6-yl)-5-((2-(trifluoromethyl)pyridin-3-yl)methoxy)benzofuran-3-carboxamide], the IC50 [4, 5] was < 1 µM.
